Experimental data reported in US20120028897A1, “METHODS AND COMPOSITIONS FOR THE TREATMENT OF FLUID RETENTION DISORDERS” (priority 2008, published 2012).
pEC50: −log10 of the molar value.

Tests used:
anesthetized rats [1] = experiment: Mean arterial blood pressure during and after iv peptide infusion; type: in vivo, rat
Procedure: (§1) Rats were not fasted prior to clearance experiments and ranged in weight from 250-340 g at the time of study. Anesthesia was induced with an intraperitoneal injection of pentobarbital sodium (55 mg/kg BW) and maintained at a surgical plane by intermittent intravenous supplementation. Core temperature was maintained at 37° C. by a servo-controlled, heated operating table. Animals breathed spontaneously through a PE240 cannula inserted into the trachea. A jugular vein was catheterized with PE50 cannula tubing for intravenous infusion of isotonic saline containing FITC-labeled inulin (0.4% W/V, Sigma, St Louis Mo.) and two PE10 cannulae, one for supplemental anesthetic and the other for peptide infusions (described below in the experimental protocol section). The ureters were exposed through a midline ventral incision and cannulated with PE10 tubing about one cm from each kidney. Urine was collected over 20 min periods and the volume estimated by weight. A femoral artery was cannulated with PE50 tubing for continuous measurement of arterial blood pressure and intermittent blood samples (50 μl), taken at the mid point of each urine collection.
(§2) Arterial blood pressure was measured with a pressure transducer connected to a cardiovascular analyzer (Model 50110, Stoelting Instruments Wood Dale, Ill.). Left renal blood flow was measured in some rats with a flow probe positioned on the left renal artery and connected to a blood flow monitor (model 1 PRB probe and model T420 monitor, Transonic Systems Inc. Ithaca N.Y.). Arterial pressure, heart rate, and renal blood flow were digitized with an A/D converter (Keithley instruments, Cleveland, Ohio Model KUSB 3100) for display and storage on a Windows-based personal computer using open layers data acquisition software (Dtx_Ez, Data Translation Inc, Marlboro, Mass.). Sodium and potassium concentrations in plasma and urine were measured by flame photometry (Model 943, Instrumentation Laboratory Co., Lexington Mass.). Glomerular filtration rate (GFR) was measured as the renal clearance rate of FITC-labeled inulin
(§3) After post-surgical equilibration (−60 min) and three 20 min control clearance periods, huUgnA or B was infused into the jugular vein at 10 μl/min over a 60 min period, followed by a return to isotonic saline for the remainder of the experiment. The infused doses of huUgnA were 12, 25, 50, 100, or 200 nmol/kg BW in a total of 38 rats; huUgnB doses were 9, 18, 35, 70, and 140 nmol/kg BW in 35 rats. A UgnA mimetic, E. coli STh (ST-core), was infused into a third group of 32 rats at doses of 17, 32, 66, 133, and 266 nmol/kg. Renal excretory responses to these infusions were slow to develop and long lasting, so clearance periods were continued for 2-3 hr after the termination of the peptide infusion. This protracted time course limited protocols to one dose of one peptide in each rat. A control group of 10 rats received isotonic saline at 10 μl/min in place of the peptide infusion, but was otherwise treated in the same way as the experimental groups.
(§4) Group comparisons were made with one way analysis of variance (ANOVA) using peptide doses as column variables. Columns were further divided into pre-infusion, infusion, and post infusion subgroups to facilitate post hoc testing with Bonferroni's method for selected multiple comparisons. Row variables were individual measurements from each clearance period for each rat. Responses were tested for statistical significance by comparing control values during the pre-infusion, infusion and post infusion collection periods with corresponding values obtained from peptide-infused rats. Each experimental group included 5 different doses of huUgnA, huUgnB, or ST-core. Thus, fifteen comparisons were required for each measured variable in each group.

anesthetized rats [2] = experiment: Urine flow rate during and after iv peptide infusion; type: in vivo, rat
Procedure: as §1, §3, §4

anesthetized rats [3] = experiment: Renal blood flow (flow probe on left renal artery); type: in vivo, rat
Procedure: as §2, §3

[4] = target: cultured GC-C-expressing cells (Homo sapiens, UniProt P25092); details: cited from earlier work
Chain of cultured GC-C-expressing cells (P25092 24-1073): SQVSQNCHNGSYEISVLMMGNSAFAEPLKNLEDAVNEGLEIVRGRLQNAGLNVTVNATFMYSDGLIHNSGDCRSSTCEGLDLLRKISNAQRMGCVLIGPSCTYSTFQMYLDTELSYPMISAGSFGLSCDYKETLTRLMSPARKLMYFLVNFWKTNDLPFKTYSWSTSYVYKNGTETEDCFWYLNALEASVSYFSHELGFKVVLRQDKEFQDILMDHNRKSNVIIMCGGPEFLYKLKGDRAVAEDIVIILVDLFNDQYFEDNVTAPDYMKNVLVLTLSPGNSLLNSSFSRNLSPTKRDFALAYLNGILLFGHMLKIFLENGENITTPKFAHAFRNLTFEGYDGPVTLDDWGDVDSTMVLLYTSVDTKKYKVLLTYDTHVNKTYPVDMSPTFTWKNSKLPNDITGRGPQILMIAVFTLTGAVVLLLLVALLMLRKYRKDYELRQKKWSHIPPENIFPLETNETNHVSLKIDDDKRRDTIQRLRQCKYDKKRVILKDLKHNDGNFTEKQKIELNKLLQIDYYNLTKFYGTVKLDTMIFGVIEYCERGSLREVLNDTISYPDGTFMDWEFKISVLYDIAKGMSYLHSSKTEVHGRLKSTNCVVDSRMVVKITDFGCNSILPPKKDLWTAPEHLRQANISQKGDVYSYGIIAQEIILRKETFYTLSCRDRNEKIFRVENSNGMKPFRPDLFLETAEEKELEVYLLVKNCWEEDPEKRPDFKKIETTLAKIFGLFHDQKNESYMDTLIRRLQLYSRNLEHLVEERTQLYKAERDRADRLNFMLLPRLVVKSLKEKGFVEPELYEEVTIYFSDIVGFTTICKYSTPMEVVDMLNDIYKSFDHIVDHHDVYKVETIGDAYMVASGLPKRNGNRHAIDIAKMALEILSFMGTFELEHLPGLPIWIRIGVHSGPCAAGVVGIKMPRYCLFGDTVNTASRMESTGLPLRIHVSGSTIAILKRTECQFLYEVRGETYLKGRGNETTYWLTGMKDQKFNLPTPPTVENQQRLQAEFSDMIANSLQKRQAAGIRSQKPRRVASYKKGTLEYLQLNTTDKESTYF

CC(C)C[C@H](NC(=O)[C@@H]1CSSC[C@@H]2NC(=O)[C@H](CC(C)C)NC(=O)[C@H](CCC(=O)O)NC(=O)[C@@H](NC(=O)[C@H](CC(=O)O)NC(=O)[C@H](CC(=O)O)NC(=O)[C@@H](N)CC(N)=O)CSSC[C@H](NC(=O)[C@H](C)NC(=O)[C@H](C(C)C)NC(=O)[C@H](CC(N)=O)NC(=O)[C@H](C(C)C)NC2=O)C(=O)N[C@@H]([C@@H](C)O)C(=O)NCC(=O)N1)C(=O)O (single isomer, unassigned) [huUgnB, Asn Asp Asp Cys Glu Leu Cys Val Asn Val Ala Cys Thr Gly Cys Leu]
BP (mean arterial blood pressure) (anesthetized rats [1]; huUgnB 9 nmol, Infusion): 108 ± 6 mmHg
BP (mean arterial blood pressure) (anesthetized rats [1]; huUgnB 9 nmol, Post-infuse): 107 ± 5 mmHg
BP (mean arterial blood pressure) (anesthetized rats [1]; huUgnB 9 nmol, Pre-infuse): 115 ± 5 mmHg
BP (mean arterial blood pressure) (anesthetized rats [1]; huUgnB 18 nmol, Infusion): 117 ± 3 mmHg
BP (mean arterial blood pressure) (anesthetized rats [1]; huUgnB 18 nmol, Post-infuse): 113 ± 3 mmHg
BP (mean arterial blood pressure) (anesthetized rats [1]; huUgnB 18 nmol, Pre-infuse): 124 ± 2 mmHg
BP (mean arterial blood pressure) (anesthetized rats [1]; huUgnB 35 nmol, Infusion): 108 ± 4 mmHg
BP (mean arterial blood pressure) (anesthetized rats [1]; huUgnB 35 nmol, Post-infuse): 107 ± 3 mmHg
BP (mean arterial blood pressure) (anesthetized rats [1]; huUgnB 35 nmol, Pre-infuse): 118 ± 3 mmHg
BP (mean arterial blood pressure) (anesthetized rats [1]; huUgnB 70 nmol, Infusion): 107 ± 5 mmHg
BP (mean arterial blood pressure) (anesthetized rats [1]; huUgnB 70 nmol, Post-infuse): 107 ± 4 mmHg
BP (mean arterial blood pressure) (anesthetized rats [1]; huUgnB 70 nmol, Pre-infuse): 119 ± 3 mmHg
BP (mean arterial blood pressure) (anesthetized rats [1]; huUgnB 140 nmol, Infusion): 119 ± 5 mmHg
BP (mean arterial blood pressure) (anesthetized rats [1]; huUgnB 140 nmol, Post-infuse): 117 ± 5 mmHg
BP (mean arterial blood pressure) (anesthetized rats [1]; huUgnB 140 nmol, Pre-infuse): 123 ± 5 mmHg
V (urine flow rate) (anesthetized rats [2]; huUgnB 9 nmol, Infusion): 2.22 ± 0.19 μl/min/g KW
V (urine flow rate) (anesthetized rats [2]; huUgnB 9 nmol, Post-infuse): 2.55 ± 0.18 μl/min/g KW
V (urine flow rate) (anesthetized rats [2]; huUgnB 9 nmol, Pre-infuse): 1.84 ± 0.28 μl/min/g KW
V (urine flow rate) (anesthetized rats [2]; huUgnB 18 nmol, Infusion): 2.40 ± 0.15 μl/min/g KW
V (urine flow rate) (anesthetized rats [2]; huUgnB 18 nmol, Post-infuse): 3.11 ± 0.32 μl/min/g KW
V (urine flow rate) (anesthetized rats [2]; huUgnB 18 nmol, Pre-infuse): 1.79 ± 0.14 μl/min/g KW
V (urine flow rate) (anesthetized rats [2]; huUgnB 35 nmol, Infusion): 2.53 ± 0.16 μl/min/g KW
V (urine flow rate) (anesthetized rats [2]; huUgnB 35 nmol, Post-infuse, *** p<0.005 vs time control): 3.84 ± 0.27*** μl/min/g KW
V (urine flow rate) (anesthetized rats [2]; huUgnB 35 nmol, Pre-infuse): 2.38 ± 0.25 μl/min/g KW
V (urine flow rate) (anesthetized rats [2]; huUgnB 70 nmol, Infusion): 3.11 ± 0.71 μl/min/g KW
V (urine flow rate) (anesthetized rats [2]; huUgnB 70 nmol, Post-infuse, * p<0.05 vs time control): 3.92 ± 0.5* μl/min/g KW
V (urine flow rate) (anesthetized rats [2]; huUgnB 70 nmol, Pre-infuse): 2.04 ± 0.20 μl/min/g KW
V (urine flow rate) (anesthetized rats [2]; huUgnB 140 nmol, Infusion): 2.71 ± 0.40 μl/min/g KW
V (urine flow rate) (anesthetized rats [2]; huUgnB 140 nmol, Post-infuse, ** p<0.01 vs time control): 4.50 ± 0.80** μl/min/g KW
V (urine flow rate) (anesthetized rats [2]; huUgnB 140 nmol, Pre-infuse): 2.24 ± 0.14 μl/min/g KW
Renal blood flow (RBF) (anesthetized rats [3]; 35 nmol huUgnB/kg, before (first value of change), n=4): 2.5+0.1 ml/min/g KW
Renal blood flow (RBF) (anesthetized rats [3]; after 35 nmol huUgnB/kg, p<0.001, n=4): 3.0+0.4 ml/min/g KW
potency, fold less potent than the A isomer [4]: more than 100 fold

CC(C)C[C@H](NC(=O)[C@@H]1CSSC[C@@H]2NC(=O)[C@H](CC(C)C)NC(=O)[C@H](CCC(=O)O)NC(=O)[C@@H](NC(=O)[C@H](CC(=O)O)NC(=O)[C@H](CC(=O)O)NC(=O)[C@@H](N)CC(N)=O)CSSC[C@H](NC(=O)[C@H](C)NC(=O)[C@H](C(C)C)NC(=O)[C@H](CC(N)=O)NC(=O)[C@H](C(C)C)NC2=O)C(=O)N[C@@H]([C@@H](C)O)C(=O)NCC(=O)N1)C(=O)O (single isomer, unassigned) [huUgnA, Asn Asp Asp Cys Glu Leu Cys Val Asn Val Ala Cys Thr Gly Cys Leu, reference compound]
BP (mean arterial blood pressure) (anesthetized rats [1]; huUgnA 12 nmol, Infusion): 110 ± 4 mmHg
BP (mean arterial blood pressure) (anesthetized rats [1]; huUgnA 12 nmol, Post-infuse): 104 ± 3 mmHg
BP (mean arterial blood pressure) (anesthetized rats [1]; huUgnA 12 nmol, Pre-infuse): 121 ± 4 mmHg
BP (mean arterial blood pressure) (anesthetized rats [1]; huUgnA 25 nmol, Infusion): 111 ± 4 mmHg
BP (mean arterial blood pressure) (anesthetized rats [1]; huUgnA 25 nmol, Post-infuse): 105 ± 4 mmHg
BP (mean arterial blood pressure) (anesthetized rats [1]; huUgnA 25 nmol, Pre-infuse): 119 ± 3 mmHg
BP (mean arterial blood pressure) (anesthetized rats [1]; huUgnA 50 nmol, Infusion): 106 ± 3 mmHg
BP (mean arterial blood pressure) (anesthetized rats [1]; huUgnA 50 nmol, Post-infuse): 101 ± 3 mmHg
BP (mean arterial blood pressure) (anesthetized rats [1]; huUgnA 50 nmol, Pre-infuse): 117 ± 3 mmHg
BP (mean arterial blood pressure) (anesthetized rats [1]; huUgnA 100 nmol, Infusion): 115 ± 3 mmHg
BP (mean arterial blood pressure) (anesthetized rats [1]; huUgnA 100 nmol, Post-infuse): 109 ± 4 mmHg
BP (mean arterial blood pressure) (anesthetized rats [1]; huUgnA 100 nmol, Pre-infuse): 121 ± 4 mmHg
BP (mean arterial blood pressure) (anesthetized rats [1]; huUgnA 200 nmol, Infusion): 113 ± 5 mmHg
BP (mean arterial blood pressure) (anesthetized rats [1]; huUgnA 200 nmol, Post-infuse): 112 ± 4 mmHg
BP (mean arterial blood pressure) (anesthetized rats [1]; huUgnA 200 nmol, Pre-infuse): 121 ± 7 mmHg
V (urine flow rate) (anesthetized rats [2]; huUgnA 12 nmol, Infusion): 2.34 ± 0.14 μl/min/g KW
V (urine flow rate) (anesthetized rats [2]; huUgnA 12 nmol, Post-infuse): 2.73 ± 0.14 μl/min/g KW
V (urine flow rate) (anesthetized rats [2]; huUgnA 12 nmol, Pre-infuse): 2.07 ± 0.23 μl/min/g KW
V (urine flow rate) (anesthetized rats [2]; huUgnA 25 nmol, Infusion): 2.98 ± 0.28 μl/min/g KW
V (urine flow rate) (anesthetized rats [2]; huUgnA 25 nmol, Post-infuse, * p<0.05 vs time control): 3.53 ± 0.25* μl/min/g KW
V (urine flow rate) (anesthetized rats [2]; huUgnA 25 nmol, Pre-infuse): 2.13 ± 0.17 μl/min/g KW
V (urine flow rate) (anesthetized rats [2]; huUgnA 50 nmol, Infusion): 2.32 ± 0.16 μl/min/g KW
V (urine flow rate) (anesthetized rats [2]; huUgnA 50 nmol, Post-infuse): 3.07 ± 0.20 μl/min/g KW
V (urine flow rate) (anesthetized rats [2]; huUgnA 50 nmol, Pre-infuse): 2.01 ± 0.13 μl/min/g KW
V (urine flow rate) (anesthetized rats [2]; huUgnA 100 nmol, Infusion): 2.48 ± 0.26 μl/min/g KW
V (urine flow rate) (anesthetized rats [2]; huUgnA 100 nmol, Post-infuse): 2.67 ± 0.23 μl/min/g KW
V (urine flow rate) (anesthetized rats [2]; huUgnA 100 nmol, Pre-infuse): 1.76 ± 0.22 μl/min/g KW
V (urine flow rate) (anesthetized rats [2]; huUgnA 200 nmol, Infusion): 2.84 ± 0.40 μl/min/g KW
V (urine flow rate) (anesthetized rats [2]; huUgnA 200 nmol, Post-infuse, ** p<0.01 vs time control): 4.12 ± 0.35** μl/min/g KW
V (urine flow rate) (anesthetized rats [2]; huUgnA 200 nmol, Pre-infuse): 2.14 ± 0.39 μl/min/g KW
Renal blood flow (RBF) (anesthetized rats [3]; 25 nmol UgnA, before (first value of change), n=4): 2.7+0.3 ml/min/g KW
Renal blood flow (RBF) (anesthetized rats [3]; after 25 nmol UgnA, p<0.001, n=4): 3.2+0.1 ml/min/g KW
pEC50 ([4]; read-out: EC50, cGMP responses): ~7.00
